Columns and labels:
Assay type in all cases: in vivo
[1] = system: Matricaria inodora (MATIN); assay: Herbicidal pre-emergence action, section A (Table A6); settings: Tripleurospermum inodorum, pre-emergence, 504 h; application rate 1280 g/ha; visual grading after ca. 3 weeks vs untreated controls; read-out: pre-emergence activity against MATIN in %
Excerpt: (§1) Seeds of mono- and dicotyledonous weed plants were sown in plastic pots (double sowings with one species of mono- and one species of dicotyledonous weed plants per pot), in sandy loam, and covered with soil. The compounds according to the invention, formulated in the form of wettable powders (WP) or as emulsifiable concentrates (EC), were applied to the surface of the covering soil as aqueous suspension or emulsion, with the addition of 0.5% of an additive, at an application rate of 600 l of water per hectare (converted). Following treatment, the pots were placed in a greenhouse and kept under optimum growth conditions for the test plants. The visual grading of the damage to the test plants was carried out after ca. 3 weeks in comparison to untreated controls (herbicidal effect in percent (%): 100% effect=plants have died off, 0% effect=as control plants).

[2] = system: Lolium rigidum (LOLRI); assay: Herbicidal pre-emergence action, section A (Table A5); settings: application rate 1280 g/ha, visual grading after ca. 3 weeks vs untreated controls; for pest or weed control at 1280 g/ha: Lolium rigidum, pre-emergence, 504 h, read-out: pre-emergence activity against LOLRI in %
Excerpt: as §1

[3] = system: Stellaria media (STEME); assay: Herbicidal pre-emergence action, section A (Table A9); settings: Stellaria media, 504 h, application rate 1280 g/ha, read-out: pre-emergence activity against STEME in %
Excerpt: as §1

[4] = system: Digitaria sanguinalis (DIGSA); assay: Herbicidal pre-emergence action, section A (Table A12); settings: for pest or weed control at 1280 g/ha / pre-emergence activity against DIGSA in %: application rate 1280 g/ha
Excerpt: as §1

[5] = system: Stellaria media (STEME); assay: Herbicidal post-emergence action, section B (Table B9); settings: application rate 1280 g/ha, visual rating about 3 weeks after treatment vs untreated controls
Protocol: (§2) Seeds of mono- and dicotyledonous weed plants were placed in plastic pots in sandy loam soil (doubly sown with in each case one species of mono- or dicotyledonous weed plants per pot), covered with soil and cultivated in a greenhouse under controlled growth conditions. 2 to 3 weeks after sowing, the test plants were treated at the one-leaf stage. The compounds of the invention, formulated in the form of wettable powders (WP) or as emulsion concentrates (EC), were applied onto the green parts of the plants as aqueous suspension or emulsion with addition of 0.5% additive at a water application rate of 600 liters per hectare (converted). After the test plants had been kept in the greenhouse under optimum growth conditions for about 3 weeks, the activity of the preparations was rated visually in comparison to untreated controls. For example, 100% activity=the plants have died, 0% activity=like control plants.

[6] = system: Setaria viridis (SETVI); assay: Herbicidal pre-emergence action, section A (Table A8); settings: for pest or weed control at 320 g/ha: Setaria viridis, 504 h, read-out: pre-emergence activity against SETVI in %
Excerpt: as §1

[7] = system: Kochia scoparia (KCHSC); assay: Herbicidal post-emergence action, section B (Table B4); settings: visual rating about 3 weeks after treatment vs untreated controls; for pest or weed control at 1280 g/ha / post-emergence activity against KCHSC in %: application rate 1280 g/ha
Protocol: as §2

[8] = system: Amaranthus retroflexus (AMARE); assay: Herbicidal pre-emergence action, section A (Table A11); settings: for pest or weed control at 320 g/ha: application rate 320 g/ha
Excerpt: as §1

[9] = system: Kochia scoparia (KCHSC); assay: Herbicidal pre-emergence action, section A (Table A4); settings: visual grading after ca. 3 weeks vs untreated controls; for pest or weed control at 320 g/ha: application rate 320 g/ha
Excerpt: as §1

[10] = system: Poa annua (POAAN); assay: Herbicidal pre-emergence action, section A (Table A7); settings: visual grading after ca. 3 weeks vs untreated controls
Excerpt: as §1

[11] = system: Amaranthus retroflexus (AMARE); assay: Herbicidal post-emergence action, section B (Table B11); settings: application rate 1280 g/ha, visual rating about 3 weeks after treatment vs untreated controls
Protocol: as §2

[12] = system: Veronica persica (VERPE); assay: Herbicidal pre-emergence action, section A (Table A10); settings: Veronica persica, 504 h, application rate 1280 g/ha, read-out: pre-emergence activity against VERPE in %
Excerpt: as §1

[13] = system: Echinochloa crus-galli (ECHCG); assay: Herbicidal pre-emergence action, section A (Table A3); settings: application rate 1280 g/ha, visual grading after ca. 3 weeks vs untreated controls; for pest or weed control at 1280 g/ha: Echinochloa crus-galli, pre-emergence, 504 h, read-out: pre-emergence activity against ECHCG in %
Excerpt: as §1

[14] = system: Veronica persica (VERPE); assay: Herbicidal post-emergence action, section B (Table B10); settings: application rate 1280 g/ha, visual rating about 3 weeks after treatment vs untreated controls
Protocol: as §2

[15] = Digitaria sanguinalis, 504 h, read-out: pre-emergence activity against DIGSA in %
[16] = Amaranthus retroflexus, 504 h, read-out: pre-emergence activity against AMARE in %
[17] = Bassia scoparia, pre-emergence, 504 h, read-out: pre-emergence activity against KCHSC in %
[18] = Poa annua, pre-emergence, 504 h, application rate 320 g/ha, read-out: pre-emergence activity against POAAN in %
[19] = Bassia scoparia, post-emergence, 504 h, read-out: post-emergence activity against KCHSC in %

**Q.** Which results are given for `Cc1cc2c(nc1-c1cccc(F)c1F)N(C(=O)C(C)C)C[S+]2[O-]` (centres unmarked) [Example I-028]?
**A.** pest or weed control at 1280 g/ha [1]: 90%; pest or weed control at 1280 g/ha [2]: 100%; pest or weed control at 1280 g/ha [3]: 90%; pest or weed control at 1280 g/ha [4, 15]: 100%; pest or weed control at 1280 g/ha ([5]; Stellaria media, post-emergence, 504 h, read-out: post-emergence activity against STEME in %): 90%; pest or weed control at 320 g/ha ([6]; application rate 320 g/ha): 100%; pest or weed control at 320 g/ha ([7]; Bassia scoparia, post-emergence, 504 h, application rate 320 g/ha, read-out: post-emergence activity against KCHSC in %): 90%; pest or weed control at 320 g/ha [8, 16]: 90%; pest or weed control at 320 g/ha [9, 17]: 90%; pest or weed control at 1280 g/ha ([10]; Poa annua, pre-emergence, 504 h, application rate 1280 g/ha, read-out: pre-emergence activity against POAAN in %): 100%

**Q.** For `O=C(c1ccccc1C(F)(F)F)N1CSc2cc(Br)c(-c3ccc(F)cc3F)nc21` [Example I-043], which “post-emergence activity against AMARE in %” value [11] is on record?
**A.** 90%

**Q.** And the “pre-emergence activity against POAAN in %” value ([10]; application rate 1280 g/ha)?
**A.** 90%

**Q.** What does the source list for `CCC(=O)N1C[S+]([O-])c2cc(C)c(-c3ccc(F)cc3F)nc21` (centres unmarked) [Example I-053]?
**A.** pest or weed control at 1280 g/ha [1]: 90%; pest or weed control at 1280 g/ha [2]: 100%; pest or weed control at 1280 g/ha [3]: 90%; pest or weed control at 320 g/ha ([4]; Digitaria sanguinalis, 504 h, application rate 320 g/ha, read-out: pre-emergence activity against DIGSA in %): 100%; pest or weed control at 1280 g/ha [12]: 90%; pest or weed control at 1280 g/ha [13]: 100%; pest or weed control at 320 g/ha ([6]; application rate 320 g/ha): 100%; pest or weed control at 1280 g/ha ([11]; Amaranthus retroflexus, post-emergence, 504 h, read-out: post-emergence activity against AMARE in %): 90%; pest or weed control at 320 g/ha [8, 16]: 90%; pest or weed control at 320 g/ha [9, 17]: 90%; pest or weed control at 320 g/ha [10, 18]: 100%

**Q.** `Cc1ccccc1-c1nc2c(cc1C)[S+]([O-])CN2C(=O)C1CC1` (centres unmarked) [Example I-063] was tested. Which pest or weed control at 1280 g/ha [2] did it give?
**A.** 100%

**Q.** What about the pest or weed control at 1280 g/ha [3] of the same compound?
**A.** 90%

**Q.** And the pest or weed control at 1280 g/ha [4, 15]?
**A.** 100%

**Q.** What about the pest or weed control at 1280 g/ha [12] of the same compound?
**A.** 90%

**Q.** And the pest or weed control at 1280 g/ha [13]?
**A.** 100%

**Q.** And the pest or weed control at 320 g/ha ([6]; application rate 320 g/ha)?
**A.** 100%

**Q.** What about the pest or weed control at 1280 g/ha [7, 19] of the same compound?
**A.** 90%

**Q.** What about the pest or weed control at 320 g/ha [8, 16] of the same compound?
**A.** 90%

**Q.** And the pest or weed control at 1280 g/ha ([14]; Veronica persica, post-emergence, 504 h, read-out: post-emergence activity against VERPE in %)?
**A.** 90%

**Q.** What about the pest or weed control at 320 g/ha [10, 18] of the same compound?
**A.** 100%

**Q.** What does the source list for `CCc1ccccc1-c1nc2c(cc1Br)SCN2B(N)N` [Example I-080]?
**A.** pre-emergence activity against DIGSA in % [4]: 100%; post-emergence activity against AMARE in % [11]: 90%

**Q.** `COC(=O)CCC(=O)N1CSc2cc(C)c(-c3ccc(F)cc3F)nc21` [Example I-084] was tested. Which “pre-emergence activity against LOLRI in %” value [2] did it give?
**A.** 100%

**Q.** What about the “pre-emergence activity against DIGSA in %” value [4] of the same compound?
**A.** 100%

**Q.** What about the “post-emergence activity against STEME in %” value [5] of the same compound?
**A.** 90%

**Q.** And the “pre-emergence activity against ECHCG in %” value [13]?
**A.** 100%

**Q.** And the “pre-emergence activity against SETVI in %” value ([6]; application rate 320 g/ha)?
**A.** 100%

**Q.** What about the “post-emergence activity against KCHSC in %” value [7] of the same compound?
**A.** 90%

**Q.** And the “post-emergence activity against AMARE in %” value [11]?
**A.** 90%

**Q.** And the “pre-emergence activity against AMARE in %” value ([8]; application rate 1280 g/ha)?
**A.** 90%

**Q.** What about the “pre-emergence activity against KCHSC in %” value ([9]; application rate 1280 g/ha) of the same compound?
**A.** 90%

**Q.** And the “post-emergence activity against VERPE in %” value [14]?
**A.** 90%

**Q.** What about the “pre-emergence activity against POAAN in %” value ([10]; application rate 320 g/ha) of the same compound?
**A.** 100%

**Q.** Which pest or weed control at 1280 g/ha [2] does the source give for `COc1ccccc1-c1nc2c(cc1C)[S+]([O-])CN2S(C)(=O)=O` (centres unmarked) [Example I-101] here?
**A.** 100%

**Q.** And the pest or weed control at 1280 g/ha [4, 15]?
**A.** 90%

**Q.** And the pest or weed control at 1280 g/ha [13]?
**A.** 90%

**Q.** And the pest or weed control at 320 g/ha ([6]; application rate 320 g/ha)?
**A.** 100%

**Q.** And the pest or weed control at 1280 g/ha [7, 19]?
**A.** 90%

**Q.** What about the pest or weed control at 1280 g/ha ([8]; Amaranthus retroflexus, 504 h, application rate 1280 g/ha, read-out: pre-emergence activity against AMARE in %) of the same compound?
**A.** 90%

**Q.** And the pest or weed control at 1280 g/ha ([9]; Bassia scoparia, pre-emergence, 504 h, application rate 1280 g/ha, read-out: pre-emergence activity against KCHSC in %)?
**A.** 90%

**Q.** What does the source list for `Fc1c(Cl)cccc1-c1nc2c(cc1Br)SCN2` [Example I-103]?
**A.** post-emergence activity against STEME in % [5]: 90%; pre-emergence activity against ECHCG in % [13]: 90%; pre-emergence activity against SETVI in % ([6]; application rate 1280 g/ha): 100%; post-emergence activity against KCHSC in % [7]: 90%; pre-emergence activity against AMARE in % ([8]; application rate 1280 g/ha): 90%; pre-emergence activity against POAAN in % ([10]; application rate 1280 g/ha): 100%
